Test: Thermo Scientific Hypersil GOLD aQ, 100 × 2.1 mm, 1.9 µm, 30 °C, 0.3 mL/min, estimated dead time 0.73 min; A: water + 0.01% formic acid + 4 mM ammonium formate; B: methanol + 0.01% formic acid + 4 mM ammonium formate; gradient (min/%B) 0/5 1/5 8/100 12/100
Settings: stereoisomer not certain

Row | SMILES | LC retention time [min]
1 | CC(C)=CC1C(C(=O)OCN2C(=O)C3=C(CCCC3)C2=O)C1(C)C (stereo unspecified) | 10.7
2 | CCOP(=S)(OCC)Oc1cc(C)nc(C(C)C)n1 | 10.2
3 | CNC(=O)ON=C(C)C(C)SC (stereo unspecified) | 7.89
4 | CCC(C)c1cc([N+](=O)[O-])cc([N+](=O)[O-])c1OC(=O)OC(C)C (stereo unspecified) | 9.22
5 | CCC1CCCC(OC2CCC(N(C)C)C(C)O2)C(C)C(=O)C2=CC3C(C=CC4CC(OC5OC(C)C(OC)C(OC)C5OC)CC43)C2CC(=O)O1 (stereo unspecified) | 10.3
6 | COP(=O)(NC(C)=O)SC (stereo unspecified) | 1.58
7 | COC(=O)C(C)N(C(=O)c1ccco1)c1c(C)cccc1C (stereo unspecified) | 9.38
8 | CC(Cc1ccc(C(C)(C)C)cc1)CN1CC(C)OC(C)C1 (stereo unspecified) | 9.38
9 | COC(=O)C=C(C)OP(=O)(OC)OC | 7.66
10 | CCC(C)C1OC2(C=CC1C)CC1CC(CC=C(C)C(OC3CC(OC)C(OC4CC(OC)C(NC)C(C)O4)C(C)O3)C(C)C=CC=C3COC4C(O)C(C)=CC(C(=O)O1)C34O)O2 (stereo unspecified) | 11.9
11 | Cc1cc(C2CC2)nc(Nc2ccccc2)n1 | 10.3
12 | c1ccc(Nc2ccccc2)cc1 | 6.3
13 | CC(C)N1C(=O)N(c2ccccc2)CSC1=NC(C)(C)C | 10.7
14 | CCOP(=O)(SC(C)CC)SC(C)CC (stereo unspecified) | 10.5
15 | CCOc1ccc(NC(=O)OC(C)C)cc1OCC | 9.37
16 | COc1cc2c(c3oc(=O)c4c(c13)CCOC4=O)C1C=COC1O2 (stereo unspecified) | 8
17 | CCOc1ccc(C(C)(C)COCc2cccc(Oc3ccccc3)c2)cc1 | 11.7
18 | COC(=O)Nc1nc2ccccc2[nH]1 | 6.3
19 | CNC(=O)Oc1cc(C)cc(C(C)C)c1 | 9.52
20 | CCS(=O)CCSP(=O)(OC)OC (stereo unspecified) | 6.04
21 | CCOP(=S)(OCC)SCSCC | 8.44

Row | SMILES | LC retention time [min]
22 | CCNc1nc(NC(C)C)nc(SC)n1 | 9.18
23 | COP(=S)(OC)Oc1ccc([N+](=O)[O-])cc1 | 9.96
24 | COc1cc2c(c3oc(=O)c4c(c13)CCOC4=O)C1CCOC1O2 (stereo unspecified) | 7.8
25 | Cc1ccc(OP(=O)(Oc2ccc(C)cc2)Oc2ccc(C)cc2)cc1 | 11.9
26 | CNC(=O)Oc1cc(C)c(S(C)(=O)=O)c(C)c1 | 6.96
27 | CCS(=O)Cc1ccccc1OC(=O)NC (stereo unspecified) | 7.09
28 | CNC(=O)Oc1cccc2c1OC(C)(C)C2 | 8.41
29 | CCCN(CCC)C(=O)SCC | 10.1
30 | CNC(=O)Oc1cccc2c1OC(C)(C)O2 | 8.4
31 | CNC(=O)ON=C(C)SC | 6.05
32 | CC#Cc1cc(C)nc(Nc2ccccc2)n1 | 10
33 | CCCCOC(=O)N(C)SN(C)C(=O)Oc1cccc2c1OC(C)(C)C2 | 10.6
34 | COC(=O)c1ccccc1CS(=O)(=O)NC(=O)Nc1nc(OC)cc(OC)n1 | 9.3
35 | CNC(=O)ON=CC(C)(C)S(C)(=O)=O | 7.37
36 | CCSCCSP(=O)(OC)OC | 8.74
37 | CCCC(=NOCC)C1=C(O)CC(C2CCCSC2)CC1=O (stereo unspecified) | 10.5
38 | CN(C)c1nc(=O)n(C2CCCCC2)c(=O)n1C | 8.61
39 | COP(=S)(OC)SCn1nnc2ccccc2c1=O | 9.38
40 | CCCCOCCOCCOCc1cc2c(cc1CCC)OCO2 | 10.8
41 | CSc1nnc(C(C)(C)C)c(=O)n1N | 8.41
42 | CCCN(CCC)C(=O)SCc1ccccc1 | 10.6

Row | SMILES | LC retention time [min]
43 | CNC(=O)ON=C(SC)C(=O)N(C)C | 5.75
44 | CCOc1cc(OP(=S)(OC)OC)nc(CC)n1 | 10.2
45 | CCOP(=S)(OCC)SCCSCC | 10.4
46 | CNC(=O)ON=CC(C)(C)S(C)=O (stereo unspecified) | 3.06
47 | Cc1nc(N(C)C)nc(OC(=O)N(C)C)c1C | 7.91
48 | CCOP(=S)(OCC)SCSP(=S)(OCC)OCC | 10.8
49 | CON=C(C(=O)OC)c1ccccc1COc1ccccc1C | 10.1
50 | CCOP(=S)(NC(C)C)Oc1ccccc1C(=O)OC(C)C (stereo unspecified) | 7.91
51 | CCOP(=S)(OCC)Oc1ccc([N+](=O)[O-])cc1 | 9.21
52 | CNC(=O)Oc1cccc2ccccc12 | 8.61
53 | C=C(C)C1Cc2c(ccc3c2OC2COc4cc(OC)c(OC)cc4C2C3=O)O1 (stereo unspecified) | 10.3
54 | c1ccc2[nH]c(-c3cscn3)nc2c1 | 6.96
55 | CSC(C)=NOC(=O)N(C)SN(C)C(=O)ON=C(C)SC | 8.88
56 | CCOP(=S)(OCC)SCCS(=O)(=O)CC | 8.89
57 | CNC(=O)ON=C(C)C(C)S(C)(=O)=O (stereo unspecified) | 7.37
58 | COP(=O)(OC)Oc1ccc([N+](=O)[O-])cc1 | 8.12
59 | CON(C(=O)c1cc(C)oc1C)C1CCCCC1 | 10.2
60 | CCS(=O)(=O)Cc1ccccc1OC(=O)NC | 7
61 | CCOP(=S)(OCC)SCCS(=O)CC (stereo unspecified) | 8.89

From the RepoRT retention time repository (doi:10.1016/j.foodchem.2015.11.070)
